Three compounds from ChEMBL document CHEMBL4825749, “Pyrimidine-2,4-dione targets STAT3 signaling pathway to induce cytotoxicity in hepatocellular carcinoma cells” (Bioorg Med Chem Lett, 2021) can be followed below.

Series [1] addresses Signal transducer and activator of transcription 3 (Homo sapiens) (UniProt P40763). In words: Inhibition of STAT3 in human HCCLM3 cell lysate assessed as suppression of STAT3-DNA interaction at 25 uM by ELISA. The series is classed as subcellular. Conditions: time hrs <=12, TDE = time-dependent effect.
The subject of series [2] is HepG2. Briefly: Cytotoxicity against human HepG2 cells assessed as reduction in cell viability measured upto 72 hrs by MTT assay. The series is classed as functional, cell-based. Conditions: HepG2, 72 h. Background: Tetrazolium assays rely on reduction of a dye to a coloured formazan, in cell work by metabolically active cells.
For series [3], the system named is HCCLM3. In words: Antimigratory activity against human HCCLM3 cells assessed as inhibition of cell migration at 50 uM in presence of CXCL12. The series is classed as functional, cell-based.
Series [4] has as its system HepG2. Briefly: Induction of cell cycle arrest in human HepG2 cells assessed as accumulation sub-G1 phase at 50 uM incubated for 48 hrs by propidium iodide staining based flow cytometry analysis relative to control. The format is functional.
The test system of series [5] is HepG2. In words: Antimigratory activity against human HepG2 cells assessed as inhibition of cell migration at 50 uM in presence of CXCL12. The series is classed as functional, cell-based.
The target in series [6] is T1, Signal transducer and activator of transcription 5A (Homo sapiens) (UniProt P42229).
T1 sequence (whole entry): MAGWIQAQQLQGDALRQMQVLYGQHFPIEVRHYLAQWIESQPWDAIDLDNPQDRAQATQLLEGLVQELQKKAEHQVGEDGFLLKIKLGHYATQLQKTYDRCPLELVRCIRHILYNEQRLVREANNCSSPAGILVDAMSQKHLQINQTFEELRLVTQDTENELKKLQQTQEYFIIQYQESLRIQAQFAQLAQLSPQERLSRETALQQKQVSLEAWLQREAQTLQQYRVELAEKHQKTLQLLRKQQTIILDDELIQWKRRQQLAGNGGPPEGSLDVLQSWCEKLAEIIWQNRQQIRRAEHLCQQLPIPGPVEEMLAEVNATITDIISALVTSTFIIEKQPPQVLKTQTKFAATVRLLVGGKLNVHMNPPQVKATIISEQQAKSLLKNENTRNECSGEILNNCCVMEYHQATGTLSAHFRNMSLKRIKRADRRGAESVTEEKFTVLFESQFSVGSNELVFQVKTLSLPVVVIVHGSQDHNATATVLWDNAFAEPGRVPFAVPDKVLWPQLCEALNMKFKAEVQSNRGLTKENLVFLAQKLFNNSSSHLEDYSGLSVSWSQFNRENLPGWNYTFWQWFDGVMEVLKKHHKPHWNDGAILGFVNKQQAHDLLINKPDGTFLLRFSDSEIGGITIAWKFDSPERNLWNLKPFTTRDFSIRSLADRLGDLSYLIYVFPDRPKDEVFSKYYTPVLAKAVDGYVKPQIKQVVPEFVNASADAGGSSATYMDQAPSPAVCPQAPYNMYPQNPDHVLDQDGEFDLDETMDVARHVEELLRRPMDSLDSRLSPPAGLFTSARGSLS
In words: […] in human HCCLM3 cells assessed as decrease in STAT3 phosphorylation at Y694 residue at 25 uM by Western blot analysis. The series is classed as cell-based.

The test system of series [7] is HCCLM3. Briefly: Induction of apoptosis in human HCCLM3 cells assessed as decrease in Bcl2 expression at 25 uM by measured up to 48 hrs Western blot analysis. The series is classed as functional, cell-based. Conditions: time hrs <=48.
The nature of series [8]: Induction of cell cycle arrest in human HCCLM3 cells assessed as accumulation sub-G1 phase at 50 uM incubated for 48 hrs by propidium iodide staining based flow cytometry analysis relative to control. The series is classed as functional. On the technique in general: Flow cytometry measures light scatter and fluorescence of single cells or particles in a stream.
The test system of series [9] is HCCLM3. In words: Induction of apoptosis in human HCCLM3 cells assessed as increase in Cleaved caspase-3 expression at 25 uM by measured up to 48 hrs Western blot analysis. As to conditions: time hrs <=48. The series is classed as functional, cell-based. On the technique in general: A western blot detects proteins with antibodies after separation by electrophoresis.

Series [10] relates to HepG2. Briefly: Antiinvasive activity in human HepG2 cells at 50 nM incubated for 8 hrs in presence of CXCL12 by crystal violet staining based assay. The format is functional, cell-based.
The subject of series [11] is L02. Briefly: Cytotoxicity against human L02 cells assessed as cell viability measured by MTT assay. The series is classed as cell-based.
Series [12] relates to HepG2. Briefly: Cytotoxicity against human HepG2 cells assessed as cell viability up to 50 uM measured upto 72 hrs by MTT assay. The format is functional, cell-based. As to conditions: dose microM <=50, time hrs <=72.
Series [13] has as its system HCCLM3. In words: Induction of apoptosis in human HCCLM3 cells assessed as decrease in Survivin expression at 25 uM by measured up to 48 hrs Western blot analysis. The format is functional, cell-based. Conditions: time hrs <=48.
The nature of series [14]: Cytotoxicity against human HCCLM3 cells assessed as reduction in cell viability measured upto 72 hrs by MTT assay. The series is classed as functional, cell-based. Conditions: HCCLM3, 72 h.
For series [15], the target named is T1, Signal transducer and activator of transcription 5A (Homo sapiens). Briefly: […] in human HepG2 cells assessed as decrease in STAT3 phosphorylation at Y694 residue at 25 uM by Western blot analysis. The format is cell-based.
For series [16], the system named is HepG2. In words: Induction of cell cycle arrest in human HepG2 cells assessed as accumulation sub-G1 phase at 50 uM incubated for 72 hrs by propidium iodide staining based flow cytometry analysis relative to control. The format is functional.
Series [17] concerns HepG2. In words: Induction of cell cycle arrest in human HepG2 cells assessed as accumulation sub-G1 phase at 50 uM incubated for 24 hrs by propidium iodide staining based flow cytometry analysis relative to control. The series is classed as functional.
Series [18] relates to HepG2. In words: Antimigratory activity against human HepG2 cells assessed as inhibition of cell migration at 50 uM. The series is classed as functional, cell-based.
The nature of series [19]: Induction of cell cycle arrest in human HCCLM3 cells assessed as accumulation sub-G1 phase at 50 uM incubated for 72 hrs by propidium iodide staining based flow cytometry analysis relative to control. The series is classed as functional.
Series [20] in a line: Induction of cell cycle arrest in human HCCLM3 cells assessed as accumulation sub-G1 phase at 50 uM incubated for 24 hrs by propidium iodide staining based flow cytometry analysis relative to control. The series is classed as functional.
Series [21] concerns the target Signal transducer and activator of transcription 3 (Homo sapiens) (UniProt P40763). In words: Inhibition of STAT3 activation in human HCCLM3 cells assessed as decrease in STAT3 phosphorylation at Y705 residue at 25 uM by Western blot analysis. The format is cell-based. Conditions: time hrs <=12, TDE = time-dependent effect.
For series [22] the target is unchanged. In words: Inhibition of STAT3 in human HepG2 cell lysate assessed as suppression of STAT3-DNA interaction at 25 uM by ELISA. The format is subcellular. Conditions: time hrs <=12, TDE = time-dependent effect.
Series [23] has as its system HCCLM3. In words: Antiinvasive activity in human HCCLM3 cells at 50 nM incubated for 8 hrs in presence of CXCL12 by crystal violet staining based assay. The series is classed as functional, cell-based.
Series [24] deals with HCCLM3. Briefly: Induction of apoptosis in human HCCLM3 cells assessed as decrease in Cyclin D1 expression at 25 uM by measured up to 48 hrs Western blot analysis. As to conditions: time hrs <=48. The series is classed as functional, cell-based.
Series [25] addresses Signal transducer and activator of transcription 3 (Homo sapiens) (UniProt P40763). In words: Inhibition of STAT3 activation in human HepG2 cells assessed as decrease in STAT3 phosphorylation at Y705 residue at 25 uM by Western blot analysis. The format is cell-based. As to conditions: time hrs <=12, TDE = time-dependent effect.
In series [26] the test system is HCCLM3. In words: Cytotoxicity against human HCCLM3 cells assessed as cell viability up to 50 uM measured upto 72 hrs by MTT assay. The series is classed as functional, cell-based. As to conditions: dose microM <=50, time hrs <=72.
The test system of series [27] is HCCLM3. In words: Antimigratory activity against human HCCLM3 cells assessed as inhibition of cell migration at 50 uM. The series is classed as functional, cell-based.

Activity calls are given as the source filed them. The rule behind the calls is not given here.

Sequence of Signal transducer and activator of transcription 3 (Homo sapiens) (P40763 whole entry): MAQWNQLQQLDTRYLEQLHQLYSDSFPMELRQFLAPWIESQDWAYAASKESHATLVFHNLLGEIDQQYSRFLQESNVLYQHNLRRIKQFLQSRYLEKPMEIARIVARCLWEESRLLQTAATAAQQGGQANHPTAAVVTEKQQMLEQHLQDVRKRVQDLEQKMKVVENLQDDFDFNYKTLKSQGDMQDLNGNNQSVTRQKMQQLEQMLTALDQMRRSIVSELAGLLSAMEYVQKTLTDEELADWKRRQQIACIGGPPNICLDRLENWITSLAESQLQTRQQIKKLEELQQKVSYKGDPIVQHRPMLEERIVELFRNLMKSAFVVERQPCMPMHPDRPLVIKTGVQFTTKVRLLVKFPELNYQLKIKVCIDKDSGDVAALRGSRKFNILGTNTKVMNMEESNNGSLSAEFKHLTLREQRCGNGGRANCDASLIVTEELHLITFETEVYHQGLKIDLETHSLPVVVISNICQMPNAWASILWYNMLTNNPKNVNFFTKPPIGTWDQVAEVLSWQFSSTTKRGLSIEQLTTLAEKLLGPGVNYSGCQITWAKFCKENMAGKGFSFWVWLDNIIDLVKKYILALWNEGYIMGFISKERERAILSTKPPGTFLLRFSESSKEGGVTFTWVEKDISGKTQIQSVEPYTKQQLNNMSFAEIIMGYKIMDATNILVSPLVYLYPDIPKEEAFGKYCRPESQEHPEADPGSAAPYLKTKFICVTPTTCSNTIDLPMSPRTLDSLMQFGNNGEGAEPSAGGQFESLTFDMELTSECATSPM

On to `Cn1c(=O)cc(-c2cccc3ccccc23)[nH]c1=O`, for which the inhibition result in series [1], in series [21], in series [22] and in series [25] was “Tde” each time. Also, the IC50 (commonly the point on the concentration scale where inhibition reaches its midpoint) in series [2] stood at 20.9 µM; in series [14] it was 42.6 µM. The result in [3], in [5], in [7], in series [9], in series [10] and in series [13] was Active. The result in series [18], in [23], in [24] and in series [27] was Active. Further, the Activity was 46.5% in series [4]; 46.5% in [8]; “Toxic” in series [11]; “Dose-Dependent Effect” in series [12]; 67.3% in series [16]; 39.3% in [17]. Also, the Activity in series [19] was 67.3%; in series [20] it was 39.3%; in series [26], “Dose-Dependent Effect”. Moreover, the inhibition result in [6] and in series [15] was “inactive” throughout.
Consider `C[C@H](NC(=O)/C(C#N)=C/c1cccc(Br)n1)c1ccccc1`, for which the Activity result in series [12] and in series [26] was “Dose-Dependent Effect” in each case.
`CC(C)Oc1cccc(-c2cc(=O)n(C)c(=O)[nH]2)c1`: the IC50 in [2] stood at 47.6 µM; in [14], 41.5 µM.
